# Source: ChEMBL document CHEMBL1159383, “Tasipeptins A and B: new cytotoxic depsipeptides from the marine cyanobacterium Symploca sp” (J Nat Prod, 2003)
# Test system: KB
# Assay: Cytotoxicity against human KB cells
# Format: functional, cell-based
structure (smiles),measurement,value
CCCC(=O)N[C@H](C(=O)N[C@@H]1C(=O)N[C@@H](CC(C)C)C(=O)N[C@H]2CC[C@@H](O)N(C2=O)[C@@H](CC(C)C)C(=O)N(C)[C@@H](Cc2ccccc2)C(=O)N[C@@H](C(C)C)C(=O)O[C@@H]1C)C(C)C [TASIPEPTIN A],IC50,930 nM
CCCC(=O)N[C@@H]1C(=O)N[C@@H](CC(C)C)C(=O)N[C@H]2CC[C@@H](O)N(C2=O)[C@@H](CC(C)C)C(=O)N(C)[C@@H](Cc2ccccc2)C(=O)N[C@@H](C(C)C)C(=O)O[C@@H]1C [TASIPEPTIN B],IC50,820 nM
